In publication PMC9746817, “Activated cholesterol metabolism is integral for innate macrophage responses by amplifying Myd88 signaling” (JCI Insight, 2022):

Legend:
[1] = biological target: T1, Myd88 CRAC domain (Mus musculus, UniProt P22366); assay: NBD-cholesterol fluorescence binding assay; details: labelled compound; paper words the KD as that of cholesterol; NBD position (22- or 25-) not told
T1 construct: CRAC-A Tyr187, CRAC-B Tyr227

[2] = biological target: 3H-cholesterol; assay: 3H-cholesterol binding to recombinant GST-tagged protein; GST-Myd88 recovered and radioactivity measured; details: 3H-cholesterol 10 μM; n = 3; mean ± SD; parent: est. 3900; read off a plot

T1 sequence (P22366 whole entry, the tested form may be a part): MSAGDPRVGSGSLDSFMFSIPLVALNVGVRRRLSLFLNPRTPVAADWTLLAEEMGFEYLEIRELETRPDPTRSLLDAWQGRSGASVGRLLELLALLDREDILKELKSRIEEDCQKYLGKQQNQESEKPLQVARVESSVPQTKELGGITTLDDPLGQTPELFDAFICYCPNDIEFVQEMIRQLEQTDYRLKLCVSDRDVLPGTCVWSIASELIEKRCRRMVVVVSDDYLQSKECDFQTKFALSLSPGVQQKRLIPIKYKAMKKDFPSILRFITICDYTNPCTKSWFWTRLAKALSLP

Row | response [2] [CPM] | Compound | Kd [1] [µM]
1 | – | C[C@H](CNc1ccc([N+](=O)[O-])c2nonc12)[C@H]1CC[C@H]2[C@@H]3CC=C4C[C@@H](O)CC[C@]4(C)[C@H]3CC[C@]12C [NBD-cholesterol] | 14.1
2 | 1900 | GST-tagged mouse Myd88 (from UniProt P22366) Y227F | –
